# Counter-ions that a name gives are not always drawn.
# Assays:
# [1] = sublingual dose of 100 micrograms, human subjects; cited from earlier work
# [2] = IV infusion from 0.2 mcg/kg/hr, schizophrenia patients
# Description: All participants were screened for inclusion and exclusion criteria. The participants were admitted to the site at screening (Day −1), the day before the infusion. Baseline assessments were performed on Day −1, as well as on the day of infusion (Day 1). The participants were on Day 1 prepared for the infusion, infused for up to 3 hours and monitored for resolution of sedation and any decreases in blood pressure or heart rate which met stopping criteria. The participants were not discharged from the research unit until three hours after resolution of any reduction in the level of arousal (e.g., RASS −1) and/or resolution of any decrease in blood pressure or heart rate meeting stopping criteria.
# Participants randomized to placebo received a matching intravenous infusion of placebo solution.
# Once the participant was drowsy (RASS −1), the infusion was stopped. […]
# (1) Richmond Agitation Sedation Scale (RASS): The desired endpoint was how rapidly drowsiness (RASS −1) could be achieved without causing changes in heart rate or blood pressure greater than that specified by the protocol. The study also monitored how long the participant remained at that level of sedation; sedation was considered resolved when the participant was awake and spontaneously responding.
# [3] = human, in vivo, iv
smiles,measurement,setting,value
"Cc1cccc([C@H](C)c2cnc[nH]2)c1C [dexmedetomidine hydrochloride, (+) 4-(S)-[1-(2,3-dimethylphenyl)ethyl]-1H-imidazole]",patients in the treatment arm with agitation reduced to a minimum (PEC score of 7 or below),"IV infusion, schizophrenia patients",9 out of 10
same,subjects with >=50% reduction in PEC score,"IV route, schizophrenia",7 of 10
same,hypotension post-administration,[1],Hypotension was observed
same,patients in the treatment arm achieving a RASS score of at least −1,[2],9 out of 10
same,Time to reach Cmax,[3],15 to 105 min

# — patent US11559484B2, “Film formulations containing dexmedetomidine and methods of producing them” (BioXcel Therapeutics, Inc., priority 2018, dated 2023)
